Results reported in patent publication US20210380946A1 (priority 2018, published 2021).

Test: Clinical trial: neutropenia, thrombocytopenia and toxicity post-melphalan reduced-intensity conditioning
Conditions: for Days ANC >500 (Absolute Neutrophil Count) / Days Platelets <50: 140 mg/m^2 melphalan single dose

## N[C@@H](Cc1ccc(N(CCCl)CCCl)cc1)C(=O)O [Melphalan, melphalan]
Subject 1
  Days ANC >500 (Absolute Neutrophil Count): 9 days
  Days Platelets <50: 13 days
Subject 2
  Days ANC >500 (Absolute Neutrophil Count): 7 days
  Days Platelets <50: 8 days
Both subjects
  chemotherapy related toxicity: cytopenia: temporary cytopenia
  chemotherapy related toxicity: transaminases: temporary mild evelvations in transaminases
Both subjects, follow-up 1 year and 6 months
  chemotherapy related toxicity: mucositis: 2-3 grade
